Assays:
[1] = Intravenous pharmacokinetics in cynomolgus monkeys; format: in vivo, cynomolgus monkeys (Macaca fasicularis); conditions: for clearance / half-life: cynomolgus monkey, plasma, iv, dosed intravenously; for half-life: read-out: Half-life (t ½; hr) (converted); for biological half-life relative to base sequence, in words: comment on Table 2
Method: For determining pharmacokinetic properties, an HIV fusion inhibitor peptide or a base sequence from which an HIV fusion inhibitor peptide is derived was dosed intravenously in cynomolgus monkeys (Macaca fasicularis) (other animal models may be used for determining pharmacokinetic properties, as known in the art). At various times post-dose, blood samples were drawn and plasma isolated by centrifugation. Plasma samples were stored frozen until analysis by LC-MS (liquid chromatography/mass spectrometry) in the electrospray, positive-ion mode. An HIV fusion inhibitor or base sequence was eluted from a C18 or C8 HPLC column with a gradient of acetonitrile in a buffer of 10 mM ammonium acetate, pH 6.8. At the time of analysis, plasma samples were deproteinated with either two or three volumes of acetonitrile containing 0.5% formic acid. Duplicate calibration standards in cynomolgus plasma samples were prepared at the same time as the samples and analyzed before and after the samples containing either HIV fusion inhibitor peptide or base sequence. Pharmacokinetic properties were calculated from the plasma concentration-time data using either mono-exponential or bi-exponential mathematical models. Models were derived by non-linear least squares optimization. A 1/C^2 weighting of concentrations was used. The following equations were used to calculate area-under the plasma concentration vs. time curve (AUC), total body clearance (Cl), and terminal elimination half-life (t ½).
Where A and B are intercepts and a and b are the rate constants of the exponential equations describing the distribution and elimination phases, respectively. When mono-exponential models were used, the “A” and “a” properties were eliminated.
Cl=Dose/AUC (expressed in L/K/hr)
t½=0.6903/b (expressed in hr)

[2] = Stability in aqueous solution (PBS), peptide remaining in solution by HPLC; format: physicochemical; conditions: 10 mg/ml in PBS, about pH 7.3 to 7.5, 37° C.
[3] = test system: 584.000060
Excerpt: (§1) Assessment of biological properties included measurement of antiviral activity against HIV-1 strains. […] These assays score for reduction of infectious virus titer employing the indicator cell lines MAGI or the CCR5 expressing derivative cMAGI. Both cell lines exploit the ability of HIV-1 tat to transactivate the expression of a β-galactosidase reporter gene driven by the HIV-LTR. The β-gal reporter has been modified to localize in the nucleus and can be detected with the X-gal substrate as intense nuclear staining within a few days of infection. The number of stained nuclei can thus be interpreted as equal to the number of infectious virions in the challenge inoculum if there is only one round of infection prior to staining. […] In the MAGI and cMAGI assays, a 50% reduction in infectious titer (Vn/Vo=0.5) is significant, and provides the primary cutoff value for assessing antiviral activity (“IC50” is defined as the concentration of active ingredient resulting in a 50% reduction in infectious virus titer). […] The peptide (in the respective dilution) was added to the cMAGI or MAGI cells, followed by the virus inocula; and 24 hours later, an inhibitor of infection and cell-cell fusion (e.g., SEQ ID NO:2 (enfuvirtide)) was added to prevent secondary rounds of HIV infection and cell-cell virus spread. The cells were cultured for 2 more days, and then fixed and stained with the X-gal substrate to detect HIV-infected cells. The number of infected cells for each control and peptide dilution was determined with the CCD-imager, and then the IC50 was calculated (expressed in μg/ml).
(§2) In particular, in vitro resistance comparison studies were performed between the novel SEQ ID NO:9 compound of interest and established antiviral agent SEQ ID NO:2, described in detail as follows: MT2 cells were infected with virus isolates (IIIB, 030, 060 and 098) and cultured in increasing concentrations of SEQ ID NO:2 (enfuvirtide) or SEQ ID NO:9 to select for resistance. The initial peptide concentration was approximately 2 times the IC50 of each peptide against the corresponding wild type isolate. Peptide concentrations were maintained by adding fresh peptide every 1-3 days. Cultures were monitored for cytopathic effect (CPE) using standard techniques and when maximal CPE was achieved, a small aliquot of virus was used for subsequent rounds of infection. Peptide concentrations were increased 2 to 4-fold depending on the length of time in culture when compared to the growth rate of wild type virus. During the course of selection, peptide-free virus stocks were also collected. Peptide-free virus stocks were characterized for gp41 genotypic changes by dideoxy sequencing chemistries and phenotypic susceptibility was determined using a cMAGI infectivity assay.

[4] = test system: 584.000030
Excerpt: as §1, §2

[5] = test system: 584.000098
Excerpt: as §1, §2

[6] = test system: virus isolates (IIIB, 030, 060 and 098); conditions: Geometric Mean of four isolates
Excerpt: as §1, §2

[7] = test system: IIIB; conditions: starting virus isolate IIIB
Excerpt: as §1, §2

Molecule: CC[C@H](C)[C@H](NC(=O)[C@H](C)NC(=O)[C@H](CCCNC(=N)N)NC(=O)[C@H](CC(=O)O)NC(=O)[C@H](Cc1c[nH]c2ccccc12)NC(=O)[C@H](C)NC(=O)[C@H](CCC(=O)O)NC(=O)[C@H](Cc1c[nH]c2ccccc12)NC(=O)[C@@H](NC(=O)[C@@H](NC(C)=O)[C@@H](C)O)[C@@H](C)O)C(=O)N[C@@H](C)C(=O)N[C@@H](CCC(=O)O)C(=O)N[C@@H](Cc1ccc(O)cc1)C(=O)N[C@@H](C)C(=O)N[C@@H](C)C(=O)N[C@@H](CCCNC(=N)N)C(=O)N[C@H](C(=O)N[C@@H](CCC(=O)O)C(=O)N[C@@H](C)C(=O)N[C@@H](CC(C)C)C(=O)N[C@H](C(=O)N[C@@H](CCCNC(=N)N)C(=O)N[C@@H](C)C(=O)N[C@@H](C)C(=O)N[C@@H](CCC(N)=O)C(=O)N[C@@H](CCC(=O)O)C(=O)N[C@@H](CCC(N)=O)C(=O)N[C@@H](CCC(N)=O)C(=O)N[C@@H](CCC(=O)O)C(=O)N[C@@H](CCCCN)C(=O)N[C@@H](CC(N)=O)C(=O)N[C@@H](CCC(=O)O)C(=O)N[C@@H](C)C(=O)N[C@@H](C)C(=O)N[C@@H](CC(C)C)C(=O)N[C@@H](CCCNC(=N)N)C(=O)N[C@@H](CCC(=O)O)C(=O)N[C@@H](CC(C)C)C(N)=O)[C@@H](C)CC)[C@@H](C)CC [SEQ ID NO:5]
- clearance [1]: > 0.667 mL/min/kg
- half-life [1]: 6 h
- peptide remaining detectable in solution ([2]; time point of 1 week): less than 80%

Molecule: Ac-TTWEAWDRAIAEYAARIEALIRALQEQQEKNEAALREL-NH2 (N-terminus and C-terminus assumed) [SEQ ID NO:6]
- biological half-life relative to base sequence, in words [1]: increased biological half-life
- clearance [1]: < 0.333 mL/min/kg
- half-life [1]: 15 h

Molecule: Ac-TTWEAWDRAIAEYAARIEALIRAAQEQQEKLEAALREL-NH2 (N-terminus and C-terminus assumed) [SEQ ID NO:7]
- biological half-life relative to base sequence, in words [1]: increased biological half-life
- clearance [1]: < 0.333 mL/min/kg
- half-life [1]: 17 h

Molecule: enfuvirtide
- stability of solution, in words [2]: becomes unstable after just several hours
- Fold Change in IC50 ([3]; starting virus isolate 584.000060): 7
- Ending IC50 ([3]; starting virus isolate 584.000060, after selection): 0.068 µg/mL
- Starting IC50 ([3]; starting virus isolate 584.000060, before selection): 0.01 µg/mL
- Fold Change in IC50 ([4]; starting virus isolate 584.000030): 19
- Ending IC50 ([4]; starting virus isolate 584.000030, after selection): 0.798 µg/mL
- Starting IC50 ([4]; starting virus isolate 584.000030, before selection): 0.042 µg/mL
- Fold Change in IC50 ([5]; starting virus isolate 584.000098): 912
- Ending IC50 ([5]; starting virus isolate 584.000098, after selection): 45.575 µg/mL
- Starting IC50 ([5]; starting virus isolate 584.000098, before selection): 0.05 µg/mL
- Fold Change in IC50 [6]: 42
- Ending IC50 ([6]; after selection): 0.797 µg/mL
- Starting IC50 ([6]; before selection): 0.019 µg/mL
- Fold Change in IC50 [7]: 27
- Ending IC50 ([7]; after selection): 0.163 µg/mL
- Starting IC50 ([7]; before selection): 0.006 µg/mL

Molecule: Ac-TTWEAWDRAIAEYAARIEALLRAAQEQQEKNEAALREL-NH2 (N-terminus and C-terminus assumed) [SEQ ID NO:8]
- biological half-life relative to base sequence, in words [1]: does not exhibit the dramatic increase in half-life
- clearance [1]: > 0.667 mL/min/kg
- half-life [1]: 7 h
